Test system: 994946-033-R-J1-PDC complex spheroid viability
Test: Anticancer human tumor 994946-033-R-J1-PDC patient-derived melanoma cell line growth inhibition [POLQ]
Settings: for IC50: curve of first compound; for viability, T/C: stronger effect = lower value; active = viability on the fitted dose curve at most 10% of control; inactive = the rest
How it was run: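 PDC + HUVEC + MSC complex spheroids; POLQ inhibitors ± partner drugs; top conc. at/near clinical Cmax, else 10 microM (SN-38 1 microM), half-log dilutions; 37 degrees C, 5% CO2.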

[1] = second compound 0.0316 µM, first compound 0.0316 µM
[2] = second compound 0.0316 µM, first compound 0.1 µM
[3] = second compound 0.0316 µM, first compound 0.316 µM
[4] = second compound 0.0316 µM, first compound 1 µM
[5] = second compound 0.0316 µM, first compound 3.16 µM
[6] = second compound 0.0316 µM, first compound 10 µM
[7] = second compound 0.1 µM, first compound 0.0316 µM
[8] = second compound 0.1 µM, first compound 0.1 µM
[9] = second compound 0.1 µM, first compound 0.316 µM
[10] = second compound 0.1 µM, first compound 1 µM
[11] = second compound 0.1 µM, first compound 3.16 µM
[12] = second compound 0.1 µM, first compound 10 µM
[13] = second compound 0.316 µM, first compound 0.0316 µM
[14] = second compound 0.316 µM, first compound 0.1 µM
[15] = second compound 0.316 µM, first compound 0.316 µM
[16] = second compound 0.316 µM, first compound 1 µM
[17] = second compound 0.316 µM, first compound 3.16 µM
[18] = second compound 0.316 µM, first compound 10 µM
[19] = second compound 1 µM, first compound 0.0316 µM
[20] = second compound 1 µM, first compound 0.1 µM
[21] = second compound 1 µM, first compound 0.316 µM
[22] = second compound 1 µM, first compound 1 µM
[23] = second compound 1 µM, first compound 3.16 µM
[24] = second compound 1 µM, first compound 10 µM
[25] = second compound 3.16 µM, first compound 0.0316 µM
[26] = second compound 3.16 µM, first compound 0.1 µM
[27] = second compound 3.16 µM, first compound 0.316 µM
[28] = second compound 3.16 µM, first compound 1 µM
[29] = second compound 3.16 µM, first compound 3.16 µM
[30] = second compound 3.16 µM, first compound 10 µM
[31] = second compound 10 µM, first compound 0.0316 µM
[32] = second compound 10 µM, first compound 0.1 µM
[33] = second compound 10 µM, first compound 0.316 µM
[34] = second compound 10 µM, first compound 1 µM
[35] = second compound 10 µM, first compound 3.16 µM
[36] = second compound 10 µM, first compound 10 µM
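Note: spheroids exposed to drugs for 7 days.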
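Throughout, for viability, T/C: 100% = DMSO vehicle treated spheroids.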

C=CC(=O)N1CCN(c2nc(=O)n(-c3c(C)ccnc3C(C)C)c3nc(-c4c(O)cccc4F)c(F)cc23)C(C)C1 (stereo unspecified) + Nc1ccc(C#CCN(C(=O)Cc2ncc(C(F)(F)F)cc2C(F)(F)F)c2ccc(F)cc2)nn1
inactive: viability, T/C [1] 92.1% | viability, T/C [2] 94.9% | viability, T/C [3] 73.3% | viability, T/C [4] 119% | viability, T/C [5] 130% | viability, T/C [6] 86.9% | viability, T/C [7] 102% | viability, T/C [8] 108% | viability, T/C [9] 75.2% | viability, T/C [10] 119% | viability, T/C [11] 74.6% | viability, T/C [12] 70.7% | viability, T/C [13] 104% | viability, T/C [14] 52.8% | viability, T/C [15] 112% | viability, T/C [16] 110% | viability, T/C [17] 103% | viability, T/C [18] 73.7% | viability, T/C [19] 94.2% | viability, T/C [20] 125% | viability, T/C [21] 108% | viability, T/C [22] 102% | viability, T/C [23] 130% | viability, T/C [24] 122% | viability, T/C [25] 80.7% | viability, T/C [26] 112% | viability, T/C [27] 83.8% | viability, T/C [28] 119% | viability, T/C [29] 118% | viability, T/C [30] 98.4% | viability, T/C [31] 110% | viability, T/C [32] 117% | viability, T/C [33] 110% | viability, T/C [34] 105% | viability, T/C [35] 120% | viability, T/C [36] 116%
> 10 µM: IC50 (second compound 0.0316 µM) | IC50 (second compound 0.1 µM) | IC50 (second compound 0.316 µM) | IC50 (second compound 1 µM) | IC50 (second compound 3.16 µM) | IC50 (second compound 10 µM)

CC(C)n1c(=O)n(C)c2cnc3cc(F)c(-c4ccc(OCCCN5CCCCC5)nc4)cc3c21 + Nc1ccc(C#CCN(C(=O)Cc2ncc(C(F)(F)F)cc2C(F)(F)F)c2ccc(F)cc2)nn1
> 10 µM: IC50 (second compound 0.0316 µM) | IC50 (second compound 0.1 µM) | IC50 (second compound 0.316 µM) | IC50 (second compound 10 µM)
8.25 µM: IC50 (second compound 3.16 µM)
8.97 µM: IC50 (second compound 1 µM)
inactive: viability, T/C [1] 82.2% | viability, T/C [2] 103% | viability, T/C [3] 80.6% | viability, T/C [4] 98.5% | viability, T/C [5] 83.5% | viability, T/C [6] 66.4% | viability, T/C [7] 113% | viability, T/C [8] 95.3% | viability, T/C [9] 52.7% | viability, T/C [10] 84.7% | viability, T/C [11] 77.5% | viability, T/C [12] 67.5% | viability, T/C [13] 88.9% | viability, T/C [14] 80.9% | viability, T/C [15] 94.7% | viability, T/C [16] 101% | viability, T/C [17] 68.9% | viability, T/C [18] 59.6% | viability, T/C [19] 76.5% | viability, T/C [20] 103% | viability, T/C [21] 98% | viability, T/C [22] 88.8% | viability, T/C [23] 93.6% | viability, T/C [24] 45.6% | viability, T/C [25] 96.6% | viability, T/C [26] 97.7% | viability, T/C [27] 97.6% | viability, T/C [28] 115% | viability, T/C [29] 85% | viability, T/C [30] 43% | viability, T/C [31] 103% | viability, T/C [32] 67.7% | viability, T/C [33] 74.4% | viability, T/C [34] 82% | viability, T/C [35] 87.9% | viability, T/C [36] 70.8%

CC1COCCN1c1cc(-c2ccnn2C)c2ccnc(-c3ccn[nH]3)c2n1 (stereo unspecified) + Nc1ccc(C#CCN(C(=O)Cc2ncc(C(F)(F)F)cc2C(F)(F)F)c2ccc(F)cc2)nn1
0.062 µM: IC50 (second compound 3.16 µM)
inactive: viability, T/C [1] 65.8% | viability, T/C [2] 41.7% | viability, T/C [3] 21.8% | viability, T/C [4] 29.1% | viability, T/C [5] 19.8% | viability, T/C [6] 15.4% | viability, T/C [7] 86.3% | viability, T/C [8] 31.8% | viability, T/C [9] 29.6% | viability, T/C [10] 26% | viability, T/C [11] 16.3% | viability, T/C [12] 9.84% | viability, T/C [13] 70.5% | viability, T/C [14] 40.5% | viability, T/C [15] 26.1% | viability, T/C [16] 23.6% | viability, T/C [17] 17.5% | viability, T/C [18] 9.71% | viability, T/C [19] 75.5% | viability, T/C [20] 33.7% | viability, T/C [21] 32.9% | viability, T/C [22] 33.6% | viability, T/C [23] 15.4% | viability, T/C [24] 14.1% | viability, T/C [25] 60.7% | viability, T/C [26] 42.4% | viability, T/C [27] 22.1% | viability, T/C [28] 21.1% | viability, T/C [29] 25.6% | viability, T/C [30] 14.1% | viability, T/C [31] 76.1% | viability, T/C [32] 44% | viability, T/C [33] 21.1% | viability, T/C [34] 21.7% | viability, T/C [35] 21.6% | viability, T/C [36] 15.8%
0.0729 µM: IC50 (second compound 0.1 µM)
0.0806 µM: IC50 (second compound 10 µM)
0.0739 µM: IC50 (second compound 1 µM)
0.0644 µM: IC50 (second compound 0.0316 µM)
0.0725 µM: IC50 (second compound 0.316 µM)

Source: PubChem BioAssay AID1963827 (Molecular Pharmacology Branch, DTP, NCI, 2024)
